In patent publication US11391726B2, “MoT cells as a therapeutic screening tool for regulatory t-cell activity” (ARIZONA BOARD OF REGENTS ON BEHALF OF ARIZONA STATE …, priority 2018, dated 2022):
“Also recorded” adds a separate entry of the source.

Columns and labels:
[1] = tested on: MoT cells; test: CFSE suppression assay: Mabs pre-incubated with MoT cells, then co-cultured with CD3/28-stimulated CD4+ PBMC; assay type: cell-based, human; details: Mab pre-incubated with MoT cells 30 minutes, CD4+ PBMC:MoT ratio 1:1/2, CFSE flow cytometry (FIGS. 5D, 5F, 5H)
Experimental: (§1) Suppression assays. After IRB approval at Arizona State University (protocol #0601000548), peripheral blood was collected from healthy donors. After Ficoll-Paque Plus gradient separation of the buffy coat, CD4+ cells were purified using EasySep Human CD4^+ T Cell Isolation Kit (Catalog #17952 from Stemcell Technologies). Cells were allowed to rest overnight in cIMDM at 37° C. prior to labeling with CFSE (Carboxyfluorescein succinimidyl ester, from Cayman Chemica cat #10009853) dye to track cell divisions. The following day, CD4^+ T cells were counted, stained with CFSE, washed in PBS and then plated in IMDM with 10% FBS at 3×10^5 cells per well in a 48-well plate coated with OKT3 antibody at 5.0 ug/mL for 2 hours at 37° C. then washed twice in PBS before adding soluble co-stimulatory anti-CD28 (eBioscience clone CD28.6) at 5.0 ug/mL final concentration.
In some studies MoT and Jurkat cells were labeled with Cell Trace FarRed dye (Thermofisher) to gate MoT and Jurkat cells away from CD4^+ PBMC in flow cytometry analysis. Two-fold serial dilutions of MoT and Jurkat cells were added to CD4^+ PBMC, starting at 1.5×10^5 MoT and Jurkat cells (1:1/2 ratio CD4^+ T cells:tumor cells). Final volume per well was 1 mL. Cells were incubated for 5 days. […]

[2] = tested on: CD4+ PBMC; test: CFSE proliferation assay: Mabs co-incubated with CD3/28-stimulated CD4+ PBMC without MoT cells; assay type: cell-based, human; details: no MoT cells (FIGS. 5C, 5E, 5G)
Experimental: as §1
(FIG. 5A) Unstimulated PBMC. (FIG. 5B) CD3/28-stimulated CD4^+ PBMC cell division without MoT cells. (FIG. 5C) Anti-GITR, (FIG. 5E) Anti-CCR4 mogamulizumab, and (FIG. 5G) anti-PDL-1 (atezolizumab) co-incubated with PBMCs. (FIG. 5D) Anti-GITR, (FIG. 5F) anti-CCR4 (mogamulizumab), and (FIG. 5H) anti-PDL-1 (atezolizumab) co-incubated with PBMCs and MoT cells (1:½ ratio).

Q: Which results are given for atezolizumab?
A: reversal of MoT cell-mediated suppression of CD4+ PBMC proliferation [1]: None of the checkpoint inhibitor Mabs including anti-GITR reversed MoT cell-mediated suppression; also recorded: did not reverse suppression; reversal of MoT cell-mediated suppression of CD4+ PBMC proliferation ([1]; listed as anti-PD-L1): did not attenuate MoT Treg suppressive activity; suppression or inhibition of CD4+ PBMC proliferation by the Mab alone [2]: do not suppress or inhibit
